As a reminder, the logP is the decadic logarithm of the partition coefficient of the neutral form, usually between octanol and water. A lower logP goes with lower lipophilicity.

Where a SMILES comes first, the peptide text is derived from it. The star is where a group is joined. X1 = O=C(CCCCSc1[nH]cnc2ncnc1-2)*

The record followed here is the OPERA property sets (Mansouri et al. 2018).

In the case of `CCC(=O)C1(c2cccc(O)c2)CCN(C)CC1`, the logP was 1.02.
As for `CCCCCC1CC(C(=O)NC(C(C)O)C2OC(SC)C(O)C(O)C2O)N(C)C1` (stereo not drawn), the figure is 0.93; as for `CCCC(=O)OCCOCn1cnc2c(=O)[nH]c(N)nc21`, -0.08.
`CC1=C(/C=C/C(C)=C/C=C/C(C)=C/CO)C(C)(C)CCC1` had a logP of 5.68.
On to `CCCCNC(=O)c1n[nH]c(C)c1[N+](=O)[O-]`, for which the lipophilicity (logP) is 1.27.
`CC1CCCC(C)C1NC(=O)N(CCCl)N=O` (stereo not drawn) returned a logP of 2.57.
In turn, `COCCCNC(=S)Cn1cnc([N+](=O)[O-])n1` yielded a logP of 0.63.
Turning to `CCC(=O)C1(c2cccc(OC(C)=O)c2)CCN(C)CC1`, the lipophilicity (logP) stood at 1.05.
`Oc1c(I)cc(I)cc1I`: the logP stood at 4.5.
Compound `CCCCCCCOc1ccc(NC(=O)OCCN2CCOCC2)cc1` yielded a logP of 4.96.
For `O=C(O)C(OCc1ccc(Cl)cc1)c1ccccc1` (stereo not drawn), the logP stood at 2.6.
Consider `Nc1nc(Cl)nc2c1ncn2C1OC(CO)C(O)C1O` (stereo not drawn), for which the logP is -0.37.
`COc1ccc2[nH]c3c(c2c1)CCNc1cc(Cl)ccc1-3` showed a logP of 4.24.
For `Cc1nc(Cl)c([N+](=O)[O-])n1C` the value was 0.87.
As for `Clc1cccc(-c2c(Cl)c(Cl)cc(Cl)c2Cl)c1Cl`, the logP stood at 7.25.
For `NC(=O)CC(CC(=O)O)c1ccc(Br)cc1` (stereo not drawn) the value was 1.12; for `Oc1cccc(Cl)n1`, 0.93.
The compound `COCCNC(=S)Cn1cnc([N+](=O)[O-])n1` registered a logP of 0.25.
Regarding `C[Si](Cn1cncn1)(c1ccc(F)cc1)c1ccc(F)cc1`, the logP came out at 3.7.
Consider `Cc1cc(Cl)ccc1Cl`, for which the log partition coefficient (logP) came out at 3.97.
As for `CN1C(=O)C(=O)C(=O)N(C)C1=O`, the figure is -0.6; as for `CCC1COC(Cn2cncn2)(c2ccc(NC(=O)NC)cc2)O1` (stereo not drawn), 0.62.
Take `C=Cc1ncc([N+](=O)[O-])n1C`: the logP was determined as 0.62.
Compound `Clc1cc(Cl)c2oc3c(Cl)cc(Cl)c(Cl)c3c2c1` displayed a logP of 6.34.
`CCC(=O)C(CS(=O)(=O)c1ccc(C)cc1)c1ccccc1` (stereo not drawn): the logP worked out at 2.45.
Regarding `CCC(C)NC(=O)C=C(N)c1ccc(Cl)cc1` (stereo not drawn), the logP worked out at 2.94.
For the compound `CCN(CC)C(=O)c1cccc2c1C(=O)C(=O)N(CC)C2=O`, the logP was found to be 0.78.
For the compound `Cc1ccc(C)c(NN=C(C#N)C#N)c1`, the logP is 3.08.
As for `NC(=O)c1ccc2ccccc2c1`, the figure is 1.88.
Compound `CC(=O)c1c(C)n(C)c2ccccc12` had a logP of 2.03.
On to `CC12CCC(=O)C=C1CCC1C2CCC2(C)C1CCC21CCC(=O)O1` (stereo not drawn), for which the logP stood at 2.98.
Compound `CCCCCCOC(=O)Oc1cccc(C2(C(=O)CC)CCN(C)CC2)c1` had a logP of 3.38.
The compound `COc1cc(OCc2ccccc2CCCN2CCC(O)CC2)cc(OC)c1OC` yielded a logP of 2.6.
For `CCC(C)C(NC(C)=O)C(=O)NC(CC(C)C)C(=O)NC(CC(=O)O)C(N)=O` (stereo not drawn) (Ac-Ile-Leu-Asp-NH2; configuration not given here) the value was -0.04.
Compound `CCN1C(=O)NC(=O)C(=O)C1=O` came in with a logP of -0.32.
As to `CCCSP(=O)(OCC)Oc1cnn(-c2ccc(Cl)cc2)c1` (stereo not drawn), the logP came out at 3.77.
As for `CC(=O)Nc1ncnc2c1ncn2C1CC(O)C(CO)O1` (stereo not drawn), the figure is -0.19; as for `CC(=O)NC(CCCCN)C(=O)NC(Cc1ccccc1)C(N)=O` (stereo not drawn), 0.12; as for `Cc1ccc(C)c(Cl)c1`, 3.86.
`O=C1OC(O)C(C(Cl)Cl)=C1Cl` (stereo not drawn) gave a logP of 1.13.
As for `CC(C)(C)n1ccnc1C=NO`, the logP was 0.85.
`Clc1ccc(Cl)c(-c2cc(Cl)c(Cl)c(Cl)c2Cl)c1` showed a lipophilicity (logP) of 7.19.
In the case of `CCOC(=O)c1cccc2c1C(=O)C(=O)N(CC)C2=O`, the logP was found to be 1.31.
As to `Clc1ccc(-c2cc(Cl)c(Cl)cc2Cl)c(Cl)c1`, the logP was found to be 7.21.
In the case of `c1nnn(C23CC4CC(CC(C4)C2)C3)n1`, the logP stood at 2.95.
As to `COCCCNC(=O)C(F)(F)Cn1cnc([N+](=O)[O-])n1`, the lipophilicity (logP) is 0.01.
With `CCC1CC2C3CCC4=CC(=O)CCC4C3CCC2(C)C1C(=O)CF` (stereo not drawn), the logP worked out at 4.66.
`CCOC(=O)CNC(=O)CNC(=O)CNC(=O)CNC(=O)CCCCSc1[nH]cnc2ncnc1-2` (X1-GGGG-OEt) came in with a lipophilicity (logP) of -0.23.
Turning to `CC(=O)OC1CC2(O)C3CCC4CC(OC5CC(O)C(OC6CC(O)C(OC7CC(O)C(O)C(C)O7)C(C)O6)C(C)O5)CCC4(C)C3CCC2(C)C1C1=CC(=O)OC1` (stereo not drawn), the logP amounted to 2.16.
`CCCNC(=O)c1ccccc1` gave a logP of 1.72.
For `Cc1cc(O)cc(C)c1O` the value was 1; for `FC(F)(F)C(F)(F)c1ccccc1`, 3.36; for `Sc1nc(-c2ccccc2)ns1`, 2.13.
For `ON=Cc1nnc(-c2ccccc2)o1` the value was 2.03.
As to `CC(=O)OC1(c2ccccc2)CCN(C)C(C)C1C` (stereo not drawn), the logP amounted to 2.52.
The compound `CC(=O)N[C@@H](Cc1c[nH]c2ccccc12)C(=O)N[C@@H](C)C(=O)N[C@@H](C)C(N)=O` (Ac-Trp-Ala-Ala-NH2) registered a logP of -0.38.
In the case of `O=C(O)c1cccc2cccc(C(=O)O)c12`, the logP came to 1.98.
In the case of `C=CCOC1=NS(=O)(=O)c2ccccc21`, the logP worked out at 1.4.
Consider `Cc1cccc(Cl)c1Cl`, for which the logP turned out to be 3.96.
`CS(=O)(=O)CCOCn1ccnc1C=NO` registered a log partition coefficient (logP) of -0.84.
Consider `CCCCCCOC(=O)n1cc(F)c(=O)[nH]c1=O`, for which the logP came to 2.04.
`O=C(O)C[N+]1([O-])CCN(C(=O)Cn2c(=O)sc3ccc(Cl)cc32)CC1` yielded a logP of 0.21.
As for `Cn1nnnc1SCC1=C(C(=O)OCOC(=O)C(C)(C)C)N2C(=O)C(NC(=O)Cc3csc(N)n3)C2SC1` (stereo not drawn), the figure is 1.36.
Regarding `CCC(C)C(NC(=O)C(CC(=O)O)NC(C)=O)C(=O)NC(Cc1ccccc1)C(N)=O` (stereo not drawn), the logP amounted to 0.61.
`S=C=NCCCCCc1ccccc1` returned a logP of 4.4.
Compound `O=C(CCCN1CCC(C(O)(c2ccccc2)c2ccccc2)CC1)c1ccccc1` came in with a logP of 4.42. This logP and that of the compound before are within 0.2 log units of each other.
For the compound `Clc1ccc(Cl)c(-c2cccc(Cl)c2Cl)c1`, the logP is 5.81.
Take `Cc1cc(C)cc(Cl)c1`: the logP was 3.88.
As for `CC1(C)SC2C(NC(=O)c3c(-c4c(F)cccc4Cl)noc3CO)C(=O)N2C1C(=O)O` (stereo not drawn), the figure is 2.23; as for `O=c1nc(N=CN2CCCCC2)ccn1C1OC(CO)C(O)C1O` (stereo not drawn), -0.66.
With `CCOC(=O)Cn1cnc([N+](=O)[O-])c1I`, the logP turned out to be 0.57.
Turning to `CNc1nc(Cl)c(SC)c(N2CCN(C)CC2)n1`, the logP came out at 2.99.
`C[C@H]1OC(O[C@H]2[C@@H](O)CC(O[C@H]3[C@@H](O)CC(O[C@H]4CC[C@@]5(C)[C@H](CC[C@@H]6[C@@H]5CC[C@]5(C)[C@@H](C7=CC(=O)OC7)[C@@H](OC=O)C[C@]65O)C4)O[C@@H]3C)O[C@@H]2C)C[C@H](O)[C@@H]1O` (stereo partly drawn) displayed a logP of 2.04.
In turn, `C1CCC2=NCCCN2CC1` yielded a logP of 1.38.
For `COCC(O)Cn1cc([N+](=O)[O-])nn1` (stereo not drawn) the value was -0.36.
Turning to `CCCCNC(=O)CNC(=O)C=[N+]=[N-]`, the logP came out at 0.37.
`COCC(F)Cn1cnc([N+](=O)[O-])n1` (stereo not drawn) registered a logP of -0.04.
`Cc1cccc(OC(C)C(=O)NNC(C)C)c1` (stereo not drawn) yielded a logP of 1.88.
